Test results from patent US20250248980A1, “IMMUNE MODULATORY AGENTS” (PRESIDENT AND FELLOWS OF HARVARD COLLEGE, priority 2022, published 2025).
pIC50: −log10 of the molar value. “Also recorded” adds a separate entry of the source. Read-outs that look alike come from different tables or passages of the source.

Experiments:
Format in all cases: cell-based
[1] = target: T1, IL-17 receptor (the IL-17RA-IL-17RC heterodimer) (Mus musculus, UniProt Q60943+Q8K4C2, F156E); test: IL-17A-receptor (IL-17RA/IL-17RC) GFP reporter cell screen; settings: for pIC50 / Emax: reducing IL-17A-receptor reporter activities; for pIC50: GFP percentage by microscope, 48 hours; for Emax: maximal effect at high compound concentrations; for specificity for IL-17A-receptor reporter over other cytokine receptor reporters: in words
T1 sequence (Q60943 32-358): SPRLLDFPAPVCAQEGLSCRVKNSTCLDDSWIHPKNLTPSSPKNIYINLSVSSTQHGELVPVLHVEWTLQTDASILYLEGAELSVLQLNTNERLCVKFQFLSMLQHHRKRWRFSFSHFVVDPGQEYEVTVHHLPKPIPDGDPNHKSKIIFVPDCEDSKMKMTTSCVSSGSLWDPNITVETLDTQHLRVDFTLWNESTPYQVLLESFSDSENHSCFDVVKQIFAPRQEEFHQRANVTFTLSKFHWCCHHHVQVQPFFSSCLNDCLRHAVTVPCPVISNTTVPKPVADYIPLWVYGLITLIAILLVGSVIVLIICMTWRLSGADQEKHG
T1 sequence (Q8K4C2 22-500 F156E): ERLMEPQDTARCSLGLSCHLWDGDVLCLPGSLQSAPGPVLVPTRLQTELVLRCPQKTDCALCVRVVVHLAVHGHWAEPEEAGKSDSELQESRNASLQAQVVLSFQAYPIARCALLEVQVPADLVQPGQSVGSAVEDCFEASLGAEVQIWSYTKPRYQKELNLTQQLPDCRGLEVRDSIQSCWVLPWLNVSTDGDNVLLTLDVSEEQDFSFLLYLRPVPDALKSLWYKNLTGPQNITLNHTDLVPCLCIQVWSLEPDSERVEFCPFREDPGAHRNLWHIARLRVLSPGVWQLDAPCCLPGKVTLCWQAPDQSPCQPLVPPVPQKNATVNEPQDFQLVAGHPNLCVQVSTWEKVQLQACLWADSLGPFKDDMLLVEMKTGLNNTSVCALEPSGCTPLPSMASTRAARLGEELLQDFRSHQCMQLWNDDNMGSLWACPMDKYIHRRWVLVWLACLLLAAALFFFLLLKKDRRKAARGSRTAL
T1 sequence (Q62386 26-158 partner): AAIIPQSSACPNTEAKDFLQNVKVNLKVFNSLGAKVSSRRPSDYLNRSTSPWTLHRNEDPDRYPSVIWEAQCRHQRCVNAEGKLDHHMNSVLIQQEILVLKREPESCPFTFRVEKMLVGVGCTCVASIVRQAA
Description: (§1) FIG. 5 is a dot plot showing the identification of small-molecule compounds that reduce IL-17A or TNF-a receptor activities. Small-molecule screens were performed with 114,665 compounds. Individual compounds were added to IL-17A-reporters or TNF-a-reporters following the addition of respective ligands such as IL-17A or TNF-a (25 ng/ml). The reporter cells were then incubated for additional 48 hours before subjecting them for microscopic analyses (GFP percentage was measured by microscope). Anti-IL17A and anti-TNFa antibodies were used as the positive controls.
To identify small molecule compounds that control IL-17R activity, a screening platform was used to monitor IL-17a binding to its receptor. Upon IL-17a binding to its receptor subunit A (IL-17RA), another receptor subunit IL-17RC is recruited, and these two subunits form a heterodimer. In the exemplary reporter system, a transcription factor (tTA) was tethered, via a protease cleavage site, to IL-17RA. In addition, a tobacco etch virus (TEV) protease was fused to the receptor subunit IL-17RC. Upon the IL-17a-dependent recruitment of IL-17RC-TEV to IL-17RA-tTA, the tTA is cleaved off from its membrane anchor IL-17RA. The released tTA then enters the nucleus and activates the reporter gene (e.g., in this case, GFP). The IL-17RA/RC reporter system responds highly selectively to IL-17a, but not to other related IL-17 family cytokines (except IL-17f).
(§2) Two thousand reporter cells per well (384-well plates) were seeded in 30 ul cell culture medium with either IL-17A (25 ng/ml, unless otherwise indicated) or TNFa ligand (25 ng/ml, unless otherwise indicated); additional screens were performed with IL-17A at 7.5 ng/ml. Then 100 nl of the individual compound was added by a pin transfer and cultured for two days in a CO2 incubator. For the cell viability test, 10 ul HOECHST 33342 was added and incubated for 10 min, followed by the addition of 10 ul 4% PFA. After a 10 min incubation, the reporter cells were washed twice with phosphate-buffered saline (PBS) and kept in 30 ul PBS. The images were acquired and analyzed using an IMAGEXPRESS confocal microscope. For storage, plates were sealed with black light-absorbing films.

[2] = test system: IL17A-dependent gene expression in mouse keratinocytes; test: IL17A-dependent gene expression in mouse keratinocytes (RT-qPCR, secondary assay, FIG. 11); settings: 10 μM compound, 5 ng/ml IL17A, 24 hours
Description: Mouse keratinocytes were cultured and stimulated with 5 ng/ml IL17A for 24 hours. During the treatment, 10 μM of each compound was added, and reverse transcription-quantitative polymerase chain reaction (RT-qPCR) was used for the gene expression level analyses of the following genes: cxcl1, cxcl2, cxcl5, 24p3, zc3h12a, S100a8, and S100a9. The top-down order of the treatment conditions indicated in the legend correspond to the left-right order of the bars for each gene. […] Compounds C770-0711 (2), C770-0720 (3), 60546479 (6), C881-0413 (9), and LAS 51593897 (11) are also of interest (see grey boxes).

TNF-a downstream genes = test: TNF-a-dependent gene expression in three cell lines (RT-qPCR, secondary assays, FIG. 12); settings: 10 μM compound, 5 ng/ml TNF-a, 24 hours, THP-1, 293T, HepG2 cells
Description: (§3) THP-1 (FIG. 12A), 293T (FIG. 12B), and HepG2 (FIG. 12C) cells were cultured and stimulated with 5 ng/ml TNF-a for 24 hours. During the treatment, 10 μM of each compound was added. RT-qPCR was used to analyze the expression levels of selected TNF-a downstream genes (IL1b, CCL4 and CXCL1 in THP-1 cells in FIG. 12A; IL18, VCAM, and CXCL10 in 293T cells in FIG. 12B; and IL18, CXCL1, and CXCL5 in HepG2 cells in FIG. 12C).

[3] = target: T2, TNF-a receptor (TNF-R1 reporter cells) (Homo sapiens, UniProt P19438); test: TNF-a-receptor GFP reporter cell screen; settings: for specificity for TNF-a-receptor reporter over other cytokine receptor reporters: in words; for pIC50 / Emax: reducing TNF-a-receptor reporter activities; for pIC50: GFP percentage by microscope, 48 hours; for Emax: maximal effect at high compound concentrations, read-out: Emax
T2 construct: expressed in transfected cells; development described in WO2022125865A2
Description: as §1
The IL-17RA/IL-17RC reporter system was used to identify the IL-17a-specific immune modulatory agents, as described herein (see e.g., compounds (1)-(16)). Furthermore, the IL-17A systems and methods were applied to generate other cytokine/cytokine receptor reporter system (tTA fused onto one receptor subunit via a protease cleavage site, TEV fused to another receptor subunit, optimal linkers inserted between different proteins to ensure high signal-to-background ratio; e.g., for identifying TNF-α-specific immune modulatory agents). The screening platform provided herein was used to identify immune modulatory agents including, but not limited to, small molecules and proteins that modulate IL-17A or TNF-α cytokine signaling.
as §2

[4] = test system: TNF-a downstream genes in THP-1 cells; test: TNF-a-dependent gene expression in THP-1 cells (RT-qPCR, FIG. 12A); settings: 10 μM compound, 5 ng/ml TNF-a, 24 hours; IL1b, CCL4, CXCL1
Description: as §3

[5] = test system: TNF-a downstream genes in 293T cells; test: TNF-a-dependent gene expression in 293T cells (RT-qPCR, FIG. 12B); settings: 10 μM compound, 5 ng/ml TNF-a, 24 hours; IL18, VCAM, CXCL10
Description: as §3

[6] = test system: TNF-a downstream genes in HepG2 cells; test: TNF-a-dependent gene expression in HepG2 cells (RT-qPCR, FIG. 12C); settings: 10 μM compound, 5 ng/ml TNF-a, 24 hours; IL18, CXCL1, CXCL5
Description: as §3

| Compound | pIC50 [1] | Emax [1] [%] | effect on IL17A-dependent gene expression [2] | effect on TNF-a-dependent gene expression (TNF-a downstream genes) | other results |
| --- | --- | --- | --- | --- | --- |
| CCc1ccc(S(=O)(=O)c2c(C(=O)c3ccccc3)cnc3ccc(CC)cc23)cc1 [Compound 1] | 5.32 | 78 |  |  |  |
| O=C(Nc1ccc(Cl)cc1Cl)c1cc(S(=O)(=O)N2CCCCCC2)ccc1F [Compound 7] | 4.82 | 57 |  |  |  |
| CCc1ccc(S(=O)(=O)c2c(C(=O)c3ccc(C)c(C)c3)cnc3ccccc23)cc1 [Compound 5] | 5.17 | 57 |  |  |  |
| Cc1ccc(NC(=O)Cn2cc3c(n2)CCCC3)cc1Cl [Compound 9] |  |  | inhibitory activities; also recorded: robust inhibitory effects |  | specificity for IL-17A-receptor reporter over other cytokine receptor reporters [1]: reduce IL-17A-, not TNF-a-, receptor reporter activities; Emax ([1]; read-out: Emax): 67% |
| CCOc1ccc(S(=O)(=O)c2c(C(=O)c3ccc(C)c(C)c3)cnc3ccccc23)cc1 [Compound 2] | 4.50 | 82 | inhibitory activities |  |  |
| CC(=O)N1CCCN(S(C)(=O)=O)CCN(Cc2cccc(F)c2O)Cc2ccccc21 [Compound 15] |  |  |  | inhibitory effects against some of TNF-a downstream genes |  |
| CCOc1ccc(S(=O)(=O)c2c(C(=O)c3ccc(CC)cc3)cnc3ccc(C)cc23)cc1 [Compound 3] | 4.91 | 44 | inhibitory activities |  |  |
| CCN1CCOc2ccccc2CCCC2(CN(C(=O)c3cc(-c4ccccc4F)no3)CCO2)C1=O (racemic) [Compound 11] |  |  | robust inhibitory effects |  |  |
| CC(C)CCN1C2CCNc3ccccc3CN(C(=O)CCCn3cncn3)CC1CC2 (racemic) [Compound 43] |  |  |  | inhibitory effects against some of TNF-a downstream genes |  |
| O=C(CSc1c2c(nc3ccccc13)CCC2)Nc1ccc(F)cc1 [Compound 39] |  |  |  | inhibitory effects against some of TNF-a downstream genes; also recorded: robust inhibitory effects | specificity for TNF-a-receptor reporter over other cytokine receptor reporters [3]: reduce TNF-a-, not IL-17A-, receptor reporter activities; pIC50 [3]: 5.05; Emax [3]: 78% |
| O=c1ccc(-c2ccccc2)nn1Cc1c(F)cccc1Cl [Compound 19] |  |  |  | inhibitory effects against some of TNF-a downstream genes | specificity for TNF-a-receptor reporter over other cytokine receptor reporters [3]: reduce TNF-a-, not IL-17A-, receptor reporter activities; pIC50 [3]: 5.13; Emax [3]: 98%; effect on TNF-a-dependent gene expression in THP-1 cells [4]: robust inhibitory effects; effect on TNF-a-dependent gene expression in 293T cells [5]: enhanced effects; effect on TNF-a-dependent gene expression in HepG2 cells [6]: enhanced effects |
| CCOC(=O)c1ccc(NC(=O)CCc2c(C)nc3c(c(C)nn3C)c2C)cc1 [Compound 8] |  |  | inhibitory activities; also recorded: robust inhibitory effects |  | specificity for IL-17A-receptor reporter over other cytokine receptor reporters [1]: reduce IL-17A-, not TNF-a-, receptor reporter activities; Emax ([1]; read-out: Emax): 94% |
